These molecules were tested against T1, human PTHR1 receptor (Homo sapiens, UniProt Q03431) (assay: Competitive antagonist binding assay for hPTH-R1 (radioactive competition binding, SPA beads)). Conditions: human PTHR1 membranes, [125I]-[Nle8,18,Tyr34]-PTH(1-34) 0.2 nM, 90 minutes at room temperature; read-out: hPTHR1 Ki.
T1 construct: purchased Eurofins HTS030M
T1 sequence (Q03431 27-593): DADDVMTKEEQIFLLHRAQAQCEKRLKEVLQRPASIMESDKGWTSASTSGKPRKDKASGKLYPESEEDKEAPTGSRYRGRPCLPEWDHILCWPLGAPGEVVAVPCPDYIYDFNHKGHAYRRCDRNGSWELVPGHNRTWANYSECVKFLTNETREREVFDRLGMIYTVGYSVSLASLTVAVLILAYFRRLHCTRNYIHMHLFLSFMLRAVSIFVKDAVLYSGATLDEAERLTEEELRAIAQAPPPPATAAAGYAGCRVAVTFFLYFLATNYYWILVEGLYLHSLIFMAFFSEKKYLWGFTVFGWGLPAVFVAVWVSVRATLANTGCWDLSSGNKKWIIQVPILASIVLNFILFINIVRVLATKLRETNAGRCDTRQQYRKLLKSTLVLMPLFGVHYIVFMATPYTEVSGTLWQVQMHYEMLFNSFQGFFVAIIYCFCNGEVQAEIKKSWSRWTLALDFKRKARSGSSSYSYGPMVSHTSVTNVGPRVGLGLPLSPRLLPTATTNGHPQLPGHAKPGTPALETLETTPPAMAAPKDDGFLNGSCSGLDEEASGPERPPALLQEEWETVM
Description: Competitive Antagonist Binding Assay Protocol for hPTH-R1 Antagonists:
The inhibition of binding to the human PTHR1 receptor was measured in a radioactive competition binding assay using the radiolabeled [^125I]-[NLE^8,18, TYR^34]-parathyroid hormone (1-34) ligand (PerkinElmer Cat# NEX244, custom synthesis) as the probe ligand for the receptor. Briefly, membranes from cells expressing the human PTHR1 (Eurofins Cat# HTS030M) were incubated with SPA beads (PerkinElmer Cat# RPNQ0001) in binding assay buffer [50 mM HEPES (Biopioneer Cat# C0113), 5 mM MgCl2 (Sigma Cat# M8266), 10 mM CaCl2 (Fisher Scientific Cat# BP510), 0.1% BSA (Fisher Scientific Cat# BP1600), 0.01% TritonX-100 (Bio-Rad Cat#161-0407), and protease inhibitors (Pierce Cat# A32963); pH 7.4]. Membranes bound to SPA bead were treated with various dilutions of compounds (final concentrations typically 0-10,000 nM), and 0.2 nM radiolabeled ligand in 96-well isoplates (PerkinElmer Cat#6005040) for 90 minutes at room temperature. The radioactive signal was detected using a MicroBetaTriLux 1450 LSC (PerkinElmer). All data manipulations to determine the Ki values were performed using GraphPad v8 (GraphPad, San Diego Calif.).

Structure (SMILES)	Ki [nM]
CCN1C(=O)N(c2c(F)cc(NC[C@@H]3COCCN3)cc2F)c2cc(C#N)ccc2-c2cc(Cl)cnc21 [1-151, 4-chloro-10-[2,6-difluoro-4-({[(3R)-morpholin-3-yl]methyl}amino)phenyl]-8-ethyl-9-oxo-6,8,10-triazatricyclo[9.4.0.0^2,7]pentadeca-1(11),2(7),3,5,12,14-hexaene-13-carbonitrile]	< 100
CCN1C(=O)N(c2c(F)cc(NCCN[C@@H](C)CO)cc2F)c2cc(C#N)ccc2-c2cc(Cl)cnc21 [1-185, 4-chloro-10-{2,6-difluoro-4-[(2-{[(2S)-1-hydroxypropan-2-yl]amino}ethyl)amino]phenyl}-8-ethyl-9-oxo-6,8,10-triazatricyclo[9.4.0.0^2,7]pentadeca-1(11),2(7),3,5,12,14-hexaene-13-carbonitrile]	< 100
CCN1C(=O)N(c2c(F)cc(NCCNCCNC(=O)OC)cc2F)c2cc(C#N)ccc2-c2cc(Cl)cnc21 [1-167, Methyl N-[2-({2-[(4-{4-chloro-13-cyano-8-ethyl-9-oxo-6,8,10-triazatricyclo[9.4.0.0^2,7]pentadeca-1(11),2(7),3,5,12,14-hexaen-10-yl}-3,5-difluorophenyl)amino]ethyl}amino)ethyl]carbamate]	< 100
CCOC(=O)CCCNc1cc(F)c(N2C(=O)N(CC)c3ncc(Cl)cc3-c3ccc(Cl)cc32)c(F)c1 [1-53, ethyl 4-[(4-{4,13-dichloro-8-ethyl-9-oxo-6,8,10-triazatricyclo[9.4.0.0^2,7]pentadeca-1(11),2(7),3,5,12,14-hexaen-10-yl}-3,5-difluorophenyl)amino]butanoate]	1000 to 10000
CCN1C(=O)N(c2c(F)cc(NCCNC3CCOCC3)cc2F)c2cc(Cl)ccc2-c2cc(C#N)ncc21 [3-24, 13-chloro-10-[2,6-difluoro-4-({2-[(oxan-4-yl)amino]ethyl}amino)phenyl]-8-ethyl-9-oxo-5,8,10-triazatricyclo[9.4.0.0^2,7]pentadeca-1(11),2(7),3,5,12,14-hexaene-4-carbonitrile]	< 100
CCN1C(=O)N(c2c(F)cc(NCCNC)cc2F)c2cc(Cl)cc(Cl)c2-c2cc(F)cnc21 [1-38, 13,15-dichloro-10-(2,6-difluoro-4-{[2-(methylamino)ethyl]amino}phenyl)-8-ethyl-4-fluoro-6,8,10-triazatricyclo[9.4.0.0^2,7]pentadeca-1(11),2(7),3,5,12,14-hexaen-9-one]	< 100
CCN1C(=O)N(c2c(F)cc(NCCNC)cc2F)c2cc(Cl)ccc2-c2cc(C(F)(F)F)cnc21 [1-57, 13-chloro-10-(2,6-difluoro-4-{[2-(methylamino)ethyl]amino}phenyl)-8-ethyl-4-(trifluoromethyl)-6,8,10-triazatricyclo[9.4.0.0^2,7]pentadeca-1(11),2(7),3,5,12,14-hexaen-9-one]	< 100
CCCN1C(=O)N(c2c(F)cc(NCCNC)cc2F)c2cc(C#N)ccc2-c2cc(F)cnc21 [1-117, 10-(2,6-difluoro-4-{[2-(methylamino)ethyl]amino}phenyl)-4-fluoro-9-oxo-8-propyl-6,8,10-triazatricyclo[9.4.0.0^2,7]pentadeca-1(11),2(7),3,5,12,14-hexaene-13-carbonitrile]	< 100
CCNCCNc1cc(F)c(N2C(=O)N(CC)c3ncc(Cl)cc3-c3ccc(C#N)cc32)c(F)c1 [1-133, 4-chloro-8-ethyl-10-(4-{[2-(ethylamino)ethyl]amino}-2,6-difluorophenyl)-9-oxo-6,8,10-triazatricyclo[9.4.0.0^2,7]pentadeca-1(11),2(7),3,5,12,14-hexaene-13-carbonitrile]	< 100
CCN1C(=O)N(c2ccc(NCCNCCO)cc2F)c2cc(Cl)ccc2-c2cc(Cl)cnc21 [2-7, 4,13-dichloro-8-ethyl-10-[2-fluoro-4-({2-[(2-hydroxyethyl)amino]ethyl}amino)phenyl]-6,8,10-triazatricyclo[9.4.0.0^2,7]pentadeca-1(11),2(7),3,5,12,14-hexaen-9-one]	< 100
CCN1C(=O)N(c2c(F)cc(NCCNCCO)cc2F)c2cc(C#N)c(C)cc2-c2cc(F)cnc21 [3-20, 10-[2,6-difluoro-4-({2-[(2-hydroxyethyl)amino]ethyl}amino)phenyl]-8-ethyl-4-fluoro-14-methyl-9-oxo-6,8,10-triazatricyclo[9.4.0.0^2,7]pentadeca-1(11),2(7),3,5,12,14-hexaene-13-carbonitrile]	< 100

The remaining lines, values ahead:

Ki [nM]	Structure (SMILES)
< 100	CCN1C(=O)N(c2c(F)cc(NCCNC3CCOC3)cc2F)c2cc(Cl)ccc2-c2cc(C)cnc21 (stereo not drawn) [1-28, 13-chloro-10-[2,6-difluoro-4-({2-[(oxolan-3-yl)amino]ethyl}amino)phenyl]-8-ethyl-4-methyl-6,8,10-triazatricyclo[9.4.0.0^2,7]pentadeca-1(11),2(7),3,5,12,14-hexaen-9-one]
< 100	CCN1C(=O)N(c2c(F)cc(NCCNC)cc2F)c2cc(Cl)ccc2-c2cc(C#N)cnc21 [1-89, 13-chloro-10-(2,6-difluoro-4-{[2-(methylamino)ethyl]amino}phenyl)-8-ethyl-9-oxo-6,8,10-triazatricyclo[9.4.0.0^2,7]pentadeca-1(11),2(7),3,5,12,14-hexaene-4-carbonitrile]
< 100	CCN1C(=O)N(c2c(F)cc(NCCNC[C@H](O)CO)cc2F)c2cc(C#N)ccc2-c2cc(F)cnc21 [1-200, 10-{4-[(2-{[(2S)-2,3-dihydroxypropyl]amino}ethyl)amino]-2,6-difluorophenyl}-8-ethyl-4-fluoro-9-oxo-6,8,10-triazatricyclo[9.4.0.0^2,7]pentadeca-1(11),2(7),3,5,12,14-hexaene-13-carbonitrile]
< 100	CCN1C(=O)N(c2c(F)cc(NCCN[C@@H]3CC[C@H]3O)cc2F)c2cc(C#N)ccc2-c2cc(Cl)cnc21 [1-179, 4-chloro-10-{2,6-difluoro-4-[(2-{[(1R,2R)-2-hydroxycyclobutyl]amino}ethyl)amino]phenyl}-8-ethyl-9-oxo-6,8,10-triazatricyclo[9.4.0.0^2,7]pentadeca-1(11),2(7),3,5,12,14-hexaene-13-carbonitrile]
< 100	CCN1C(=O)N(c2c(F)cc(NCCNCCCC(=O)O)cc2F)c2cc(C#N)ccc2-c2cc(F)cnc21 [1-83, 4-({2-[(4-{13-cyano-8-ethyl-4-fluoro-9-oxo-6,8,10-triazatricyclo[9.4.0.0^2,7]pentadeca-1(11),2(7),3,5,12,14-hexaen-10-yl}-3,5-difluorophenyl)amino]ethyl}amino)butanoic acid]
< 100	CCN1C(=O)N(c2c(F)cc(NCCNC(C)CO)cc2F)c2cc(C#N)ccc2-c2cc(Cl)cnc21 (stereo not drawn) [1-149, 4-chloro-10-[2,6-difluoro-4-({2-[(1-hydroxypropan-2-yl)amino]ethyl}amino)phenyl]-8-ethyl-9-oxo-6,8,10-triazatricyclo[9.4.0.0^2,7]pentadeca-1(11),2(7),3,5,12,14-hexaene-13-carbonitrile]
100 to 1000	CCN1C(=O)N(c2c(F)cc(N3CCN[C@H](CO)C3)cc2F)c2cc(C#N)ccc2-c2cc(Cl)cnc21 [1-152, 4-chloro-10-{2,6-difluoro-4-[(3S)-3-(hydroxymethyl)piperazin-1-yl]phenyl}-8-ethyl-9-oxo-6,8,10-triazatricyclo[9.4.0.0^2,7]pentadeca-1(11),2(7),3,5,12,14-hexaene-13-carbonitrile]
< 100	CCN1C(=O)N(c2c(F)cc(NCCN[C@@H](C)C(=O)O)cc2F)c2cc(C#N)ccc2-c2cc(Cl)cnc21 [1-219, (2S)-2-({2-[(4-{4-chloro-13-cyano-8-ethyl-9-oxo-6,8,10-triazatricyclo[9.4.0.0^2,7]pentadeca-1(11),2(7),3,5,12,14-hexaen-10-yl}-3,5-difluorophenyl)amino]ethyl}amino)propanoic acid]
< 100	CCN1C(=O)N(c2c(F)cc(NCCNC3CCOC3)cc2F)c2cc(Cl)ccc2-c2cccnc21 (stereo not drawn) [1-5, 13-chloro-10-[2,6-difluoro-4-({2-[(oxolan-3-yl)amino]ethyl}amino)phenyl]-8-ethyl-6,8,10-triazatricyclo[9.4.0.0^2,7]pentadeca-1(11),2(7),3,5,12,14-hexaen-9-one]
< 100	CNCCNc1cc(F)c(N2C(=O)N(C(C)C)c3ncc(F)cc3-c3ccc(C#N)cc32)c(F)c1 [1-84, 10-(2,6-difluoro-4-{[2-(methylamino)ethyl]amino}phenyl)-4-fluoro-9-oxo-8-(propan-2-yl)-6,8,10-triazatricyclo[9.4.0.0^2,7]pentadeca-1(11),2(7),3,5,12,14-hexaene-13-carbonitrile]
